Laboratory results published in ChEMBL document CHEMBL1828583, “Discovery process and pharmacological characterization of a novel dual orexin 1 and orexin 2 receptor antagonist useful for treatment of sleep disorders” (Bioorg Med Chem Lett, 2011).
Calls of active or inactive are those of the source. No cut-off for these calls is given here.

Tests used:
Orexin receptor type 2 [1] = molecular target: T1, Orexin receptor type 2 (Homo sapiens, UniProt O43614); assay: Antagonist activity at recombinant human OX2R expressed in CHO cells by FLIPR calcium based functional assay; format: cell-based
T1 sequence (O43614 whole entry): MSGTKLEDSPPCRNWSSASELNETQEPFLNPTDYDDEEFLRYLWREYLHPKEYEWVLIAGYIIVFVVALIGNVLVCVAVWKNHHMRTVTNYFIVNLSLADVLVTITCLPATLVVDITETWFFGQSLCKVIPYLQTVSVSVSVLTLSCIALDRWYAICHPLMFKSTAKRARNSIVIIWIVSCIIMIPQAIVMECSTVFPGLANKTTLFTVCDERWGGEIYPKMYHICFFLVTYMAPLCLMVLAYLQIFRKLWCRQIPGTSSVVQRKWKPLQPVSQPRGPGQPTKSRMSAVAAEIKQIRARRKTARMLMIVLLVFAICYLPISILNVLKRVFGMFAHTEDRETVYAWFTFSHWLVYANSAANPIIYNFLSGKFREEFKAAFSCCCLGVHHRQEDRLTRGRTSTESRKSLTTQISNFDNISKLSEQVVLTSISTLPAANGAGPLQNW

[2] = molecular target: T2, Orexin/Hypocretin receptor type 1 (Homo sapiens, UniProt O43613); assay: Antagonist activity at recombinant human OX1R expressed in CHO cells by FLIPR calcium based functional assay; format: cell-based
T2 sequence (O43613 whole entry): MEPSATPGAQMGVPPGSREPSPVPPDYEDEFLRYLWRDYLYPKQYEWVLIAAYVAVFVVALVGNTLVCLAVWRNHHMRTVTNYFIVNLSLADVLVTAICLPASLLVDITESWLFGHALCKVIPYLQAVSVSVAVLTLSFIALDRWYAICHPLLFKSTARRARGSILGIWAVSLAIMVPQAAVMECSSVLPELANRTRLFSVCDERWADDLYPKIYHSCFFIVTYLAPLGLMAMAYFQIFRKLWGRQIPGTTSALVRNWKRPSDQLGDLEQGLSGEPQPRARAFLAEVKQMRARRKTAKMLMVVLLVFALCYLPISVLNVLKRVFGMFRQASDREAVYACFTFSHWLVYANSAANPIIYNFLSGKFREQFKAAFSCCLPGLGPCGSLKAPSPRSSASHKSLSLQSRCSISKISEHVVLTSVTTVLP

Liver microsomes = assay: Intrinsic clearance in human liver microsomes; format: ADME, Microsome
Rattus norvegicus [3] = assay: Hypnotic activity in CD rat Circadian time model assessed as non-rapid eye movement latency period at 10 mg/kg, po administered during active phase measured from starting time CT18 (reference value: 46.1 +/- 10.0 mins); format: functional
Rattus norvegicus [4] = assay: Hypnotic activity in CD rat Circadian time model assessed as rapid eye movement sleep at 10 mg/kg, po administered during active phase measured from starting time CT18 (reference value: 3.22 +/- 0.73 mins); format: functional
Rattus norvegicus [5] = assay: Hypnotic activity in po dosed CD rat Circadian time model assessed as non-rapid eye movement latency period during active phase measured from starting time CT18; format: functional, organism-based
[6] = molecular target: T3, Orexin/Hypocretin receptor type 1 (Rattus norvegicus) (UniProt P56718); assay: Agonist activity at recombinant rat OX1R expressed in CHO cells at 1 uM; format: functional, cell-based
T3 sequence (whole entry): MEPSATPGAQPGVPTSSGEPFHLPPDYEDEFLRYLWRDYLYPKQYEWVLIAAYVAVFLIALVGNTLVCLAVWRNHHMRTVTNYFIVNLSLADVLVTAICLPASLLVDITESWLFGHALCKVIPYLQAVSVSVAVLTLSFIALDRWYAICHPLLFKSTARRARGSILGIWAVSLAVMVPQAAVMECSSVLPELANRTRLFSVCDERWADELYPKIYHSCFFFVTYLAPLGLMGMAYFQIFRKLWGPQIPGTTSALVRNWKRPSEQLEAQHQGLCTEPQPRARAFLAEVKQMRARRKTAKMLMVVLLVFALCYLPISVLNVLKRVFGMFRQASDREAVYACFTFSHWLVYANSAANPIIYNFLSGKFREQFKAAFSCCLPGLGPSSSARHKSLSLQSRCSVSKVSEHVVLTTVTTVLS

Rattus norvegicus [7] = assay: Hypnotic activity in CD rat Circadian time model assessed as awake period at 30 mg/kg, po administered during active phase measured from starting time CT18 (reference value: 218 +/- 11.32 mins); format: functional
[8] = Volume of distribution at steady state in CD rat at 1 mg/kg, iv and 3 mg/kg, po; format: ADME, organism-based; details: in vivo, read-out: Vdss
Rattus norvegicus [9] = assay: Hypnotic activity in CD rat Circadian time model assessed as rapid eye movement latency period at 30 mg/kg, po administered during active phase measured from starting time CT18 (reference value: 146.3 +/- 54.2 mins); format: functional
[10] = molecular target: T4, Orexin/Hypocretin receptor type 1 (Homo sapiens) (UniProt O43613); assay: Agonist activity at recombinant human OX1R expressed in CHO cells at 1 uM; format: functional, cell-based
T4 sequence (whole entry): T2 sequence (O43613 whole entry)

Rattus norvegicus [11] = assay: In vivo antagonist activity at OX1R in CD rat assessed as reduction of OX-A induced grooming dosed orally 3 hrs before OX-A injection measured after 1 hrs; format: functional, organism-based
[12] = Half life in CD rat at 1 mg/kg, iv and 3 mg/kg, po; format: ADME, organism-based; details: in vivo
Rattus norvegicus [13] = assay: Hypnotic activity in po dosed CD rat Circadian time model assessed as total sleep time measured during active phase after 5 hrs; format: functional, organism-based
Rattus norvegicus [14] = assay: Hypnotic activity in CD rat Circadian time model assessed as non-rapid eye movement sleep at 30 mg/kg, po administered during active phase measured from starting time CT18 (reference value: 78.1 +/- 11.3 mins); format: functional
Rattus norvegicus [15] = assay: Hypnotic activity in CD rat Circadian time model assessed as non-rapid eye movement sleep at 10 mg/kg, po administered during active phase measured from starting time CT18 (reference value: 78.1 +/- 11.3 mins); format: functional
Rattus norvegicus [16] = assay: Neurotoxicity in CD rat assessed as impairment of motor coordination at 1 to 10 mg/kg, po by rotarod test in presence of 1 g/kg, ip ethanol; format: toxicity, organism-based; set-up: dose 1-10 mg/kg, route oral; details: in vivo
[17] = Cmax in CD rat at 1 mg/kg, iv and 3 mg/kg, po; format: ADME, organism-based; details: in vivo
[18] = molecular target: T2, Orexin/Hypocretin receptor type 1; assay: Displacement of [3H]almorexant from recombinant human OX1R expressed in CHO cells; format: cell-based
Rattus norvegicus [19] = assay: Hypnotic activity in po dosed CD rat Circadian time model assessed as non-rapid eye movement sleep administered during active phase measured from starting time CT18; format: functional, organism-based
[20] = Fraction unbound in CD rat brain at 1 mg/kg, iv after 1 hrs; format: ADME, organism-based; set-up: dose 1 mg/kg, route intravenous
Rattus norvegicus [21] = assay: Hypnotic activity in CD rat Circadian time model assessed as non-rapid eye movement latency period at 3 mg/kg, po administered during active phase measured from starting time CT18 (reference value: 46.1 +/- 10.0 mins); format: functional
Orexin receptor type 2 [22] = molecular target: T5, Orexin receptor type 2 (Rattus norvegicus, UniProt P56719); assay: Antagonist activity at recombinant rat OX2R expressed in CHO cells by FLIPR calcium based functional assay; format: cell-based
T5 sequence (P56719 whole entry): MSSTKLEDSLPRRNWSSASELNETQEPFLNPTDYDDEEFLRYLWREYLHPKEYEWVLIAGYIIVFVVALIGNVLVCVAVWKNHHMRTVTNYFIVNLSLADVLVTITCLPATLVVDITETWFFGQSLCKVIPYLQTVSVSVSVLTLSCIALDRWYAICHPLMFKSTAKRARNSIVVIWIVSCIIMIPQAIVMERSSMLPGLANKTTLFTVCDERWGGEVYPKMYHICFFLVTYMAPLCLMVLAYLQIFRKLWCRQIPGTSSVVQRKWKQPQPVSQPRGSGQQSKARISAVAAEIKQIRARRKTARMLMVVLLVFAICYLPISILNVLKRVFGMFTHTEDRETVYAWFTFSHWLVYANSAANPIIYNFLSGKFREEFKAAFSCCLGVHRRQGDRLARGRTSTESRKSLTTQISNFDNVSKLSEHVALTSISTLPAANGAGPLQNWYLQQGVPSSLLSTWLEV

Rattus norvegicus [23] = assay: Hypnotic activity in CD rat Circadian time model assessed as rapid eye movement latency period at 3 mg/kg, po administered during active phase measured from starting time CT18 (reference value: 146.3 +/- 54.2 mins); format: functional
Rattus norvegicus [24] = assay: Neurotoxicity in CD rat assessed as impairment of motor coordination at 1 to 10 mg/kg, po by rotarod test; format: toxicity, organism-based; set-up: dose 1-10 mg/kg, route oral; details: in vivo
Rattus norvegicus [25] = assay: Hypnotic activity in CD rat Circadian time model assessed as awake period at 10 mg/kg, po administered during active phase measured from starting time CT18 (reference value: 218 +/- 11.32 mins); format: functional
[26] = Oral bioavailability in CD rat at 3 mg/kg; format: ADME, organism-based; details: in vivo
Rattus norvegicus [27] = assay: Hypnotic activity in CD rat Circadian time model assessed as rapid eye movement sleep at 3 mg/kg, po administered during active phase measured from starting time CT18 (reference value: 3.22 +/- 0.73 mins); format: functional
Rattus norvegicus [28] = assay: Hypnotic activity in CD rat Circadian time model assessed as rapid eye movement sleep at 30 mg/kg, po administered during active phase measured from starting time CT18 (reference value: 3.22 +/- 0.73 mins); format: functional
Rattus norvegicus [29] = assay: Hypnotic activity in CD rat Circadian time model assessed as total sleep time at 10 mg/kg, po administered during active phase (reference value: 81 +/- 11 mins); format: functional
Rattus norvegicus [30] = assay: Hypnotic activity in CD rat Circadian time model assessed as non-rapid eye movement sleep at 3 mg/kg, po administered during active phase measured from starting time CT18 (reference value: 78.1 +/- 11.3 mins); format: functional
Rattus norvegicus [31] = assay: Hypnotic activity in CD rat Circadian time model assessed as awake period at 3 mg/kg, po administered during active phase measured from starting time CT18 (reference value: 218 +/- 11.32 mins); format: functional
Orexin receptor type 2 [32] = molecular target: T1, Orexin receptor type 2; assay: Displacement of [3H]almorexant from recombinant human OX2R expressed in CHO cells; format: cell-based
[33] = Fraction unbound in CD rat plasma at 1 mg/kg, iv after 1 hrs; format: ADME, organism-based; set-up: dose 1 mg/kg, route intravenous
Rattus norvegicus [34] = assay: Hypnotic activity in po dosed CD rat Circadian time model assessed as rapid eye movement sleep administered during active phase measured from starting time CT18; format: functional, organism-based
[35] = Plasma clearance in CD rat at 1 mg/kg, iv and 3 mg/kg, po; format: ADME, organism-based
Rattus norvegicus [36] = assay: Hypnotic activity in CD rat Circadian time model assessed as non-rapid eye movement latency period at 30 mg/kg, po administered during active phase measured from starting time CT18 (reference value: 46.1 +/- 10.0 mins); format: functional
[37] = Ratio of drug level in brain to blood in CD rat at 1 mg/kg, iv after 1 hrs; format: ADME, organism-based; set-up: dose 1 mg/kg, route intravenous; details: read-out: BBR
Rattus norvegicus [38] = assay: Hypnotic activity in CD rat Circadian time model assessed as rapid eye movement latency period at 10 mg/kg, po administered during active phase measured from starting time CT18 (reference value: 146.3 +/- 54.2 mins); format: functional
[39] = molecular target: T6, Orexin/Hypocretin receptor type 1 (Rattus norvegicus, UniProt P56718); assay: Antagonist activity at recombinant rat OX1R expressed in CHO cells by FLIPR calcium based functional assay; format: cell-based
T6 sequence (P56718 whole entry): T3 sequence (whole entry)

COc1cccc(C(=O)N2CCCCC2CCOc2ccc(Cl)c(Cl)c2)c1 (racemic)
Ki (Orexin receptor type 2 [1]): 501 nM
Ki [2]: 126 nM

O=C(NC[C@@H]1CCCCN1C(=O)c1ccccc1-c1ccccc1)Nc1ccccc1
Ki (Orexin receptor type 2 [1]): 5.01 nM
Ki [2]: 1 nM

CN(C[C@@H]1CCCCN1C(=O)c1ccccc1-c1ccccc1)C(=O)c1ccc(F)cc1
Ki (Orexin receptor type 2 [1]): 1260 nM
Ki [2]: 501 nM

N#Cc1cccc(C(=O)N2CCCCC2CCOc2ccc(Cl)c(Cl)c2)c1 (racemic)
Ki (Orexin receptor type 2 [1]): 631 nM
Ki [2]: 398 nM

O=C(c1ccc(Cl)c(Cl)c1)N1CCCCC1CCOc1ccc(Cl)c(Cl)c1 (racemic)
Ki (Orexin receptor type 2 [1]): > 3160 nM
Ki [2]: 2510 nM

O=C(NC[C@@H]1CCCCN1C(=O)c1ccccc1-c1ccccc1)c1ccccc1
Ki (Orexin receptor type 2 [1]): 20 nM
Ki [2]: 7.94 nM

O=C(NC[C@@H]1CCCCN1C(=O)c1ccccc1-c1ccccc1)c1ccc(F)cc1
CL (Liver microsomes): 23 mL/min/g
Ki (Orexin receptor type 2 [1]): 0.251 nM
Ki [2]: 0.126 nM

Cc1nc(C(=O)N2CCCC[C@H]2CNC(=O)c2cccc3occc23)c(-c2ccc(F)cc2)s1 [SB-649868]
Time (Rattus norvegicus [3]): 11.6 min
Time (Rattus norvegicus [4]): 17.7 min
Activity (Rattus norvegicus [5]): Dose-dependent effect
Activity [6]: inactive
Time (Rattus norvegicus [7]): 87 min
Vd [8]: 1.1 L/kg
Time (Rattus norvegicus [9]): 13.8 min
Activity [10]: inactive
Activity (Rattus norvegicus [11]): Dose-dependent effect
CL (Liver microsomes): 15.1 mL/min/g
half-life [12]: < 36 min
Activity (Rattus norvegicus [13]): Dose-dependent effect
Time (Rattus norvegicus [14]): 186.6 min
Time (Rattus norvegicus [15]): 165.2 min
Activity (Rattus norvegicus [16]): Non-toxic
Cmax [17]: 333 ng/mL
Ki [18]: 0.759 nM
Activity (Rattus norvegicus [19]): Dose-dependent effect
fraction unbound at 1 h [20]: 0.0528
Time (Rattus norvegicus [21]): 19 min
Ki (Orexin receptor type 2 [22]): 0.0776 nM
Time (Rattus norvegicus [23]): 30.1 min
Activity (Rattus norvegicus [24]): Non-toxic
Time (Rattus norvegicus [25]): 117 min
bioavailability [26]: 85%
Time (Rattus norvegicus [27]): 6.5 min
Time (Rattus norvegicus [28]): 24.1 min
Time (Rattus norvegicus [29]): 182 min
Time (Rattus norvegicus [30]): 99.3 min
Time (Rattus norvegicus [31]): 194 min
Ki (Orexin receptor type 2 [32]): 1.29 nM
fraction unbound at 1 h [33]: 0.0134
Activity (Rattus norvegicus [34]): Dose-dependent effect
clearance [35]: 24 mL/min/kg
Time (Rattus norvegicus [36]): 8.3 min
Kp at 1 h [37]: 0.1
Time (Rattus norvegicus [38]): 26.6 min
Ki [39]: 0.117 nM
